Laboratory results from patent US20100120700A1, “METHODS AND COMPOSITIONS FOR TREATING CERVICAL CANCER” (priority 2000, published 2010).
Several values for one entry are separate records, joined by “and”; a condition that tells them apart may be missing. Equal values may be shown once.

Key:
Experiment in all cases: G assay PDZ-PL binding
Details in all cases: peptide 10 uM, protein 5
PTN-4 domain 1 = biological target: T1, PTN-4 domain 1 (Homo sapiens, UniProt P29074)
T1 construct: made in house; host or cells: E. coli (DH5alpha, BL21 or JM109), vector pGEX-3X
T1 sequence (P29074 518-605): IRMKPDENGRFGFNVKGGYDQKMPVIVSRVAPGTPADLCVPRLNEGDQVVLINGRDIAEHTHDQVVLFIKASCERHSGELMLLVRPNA
Protocol: (§1) (1) A PDZ-domain polypeptide is bound to a surface, e.g. a protein binding surface. In a preferred embodiment, a GST/PDZ fusion protein containing one or more PDZ domains is bound to a polystyrene 96-well plate. […] In one embodiment, the GST/PDZ fusion protein is bound via an anti-GST antibody that is coated onto the 96-well plate. Adequate binding to the plate can be achieved when: • a. 100 uL per well of 5 ug/mL goat anti-GST polyclonal antibody (Pierce) in PBS is added to a polystyrene 96-well plate (e.g., Num Polysorb) at 4° C. for 12 hours. • b. The plate is blocked by addition of 200 uL per well of PBS/BSA for 2 hours at 4° C. • c. The plate is washed 3 times with PBS. • d. 50 uL per well of 5 ug/mL GST/PDZ fusion protein) or, as a negative control, GST polypeptide alone (i.e. not a fusion protein) in PBS/BSA is added to the plate for 2 hours at 4° C. • e. The plate is again washed 3 times with PBS.
(§2) (2) Biotinylated PL peptides are allowed to react with the surface by addition of 50 uL per well of 20 uM solution of the biotinylated peptide in PBS/BSA for 10 minutes at 4° C., followed by an additional 20 minute incubation at 25° C.
(§3) (3) The binding of the biotinylated peptide to the GST/PDZ fusion protein surface can be detected using a variety of methods and detectors known to one of skill in the art. In one embodiment, 100 uL per well of 0.5 ug/mL streptavidin-horse radish peroxidase (HRP) conjugate dissolved in BSA/PBS is added and allowed to react for 20 minutes at 4° C. The plate is then washed 5 times with 50 mM Tris pH 8.0 containing 0.2% Tween 20, and developed by addition of 100 uL per well of HRP-substrate solution (TMB, Dako) for 20 minutes at room temperature (RT). The reaction of the HRP and its substrate is terminated by addition of 100 uL per well of 1M sulfuric acid, and the absorbance of each well of the plate is read at 450 nm.
(§4) (4) Specific binding of a PL peptide and a PDZ domain polypeptide is determined by comparing the signal from the well(s) in which the PL peptide and PDZ domain polypeptide are combined, with the background signal(s). The background signal is the signal found in the negative control(s). Typically a specific or selective reaction will be at least twice background signal, more typically more than 5 times background, and most typically 10 or more times the background signal. In addition, a statistically significant reaction will involve multiple measurements of the reaction with the signal and the background differing by at least two standard errors, more typically four standard errors, and most typically six or more standard errors. Correspondingly, a statistical test (e.g. a T-test) comparing repeated measurements of the signal with-repeated measurements of the background will result in a p-value<0.05, more typically a p-value<0.01, and most typically a p-value<0.001 or less. As noted, in an embodiment of the “G” assay, the signal from binding of a given PL peptide to immobilized (surface bound) GST polypeptide alone is one suitable negative control (sometimes referred to as “B 1”). Because all measurement are done in multiples (i.e. at least duplicate) the arithmetic mean (or, equivalently, average.) of several measurements is used in determining the binding, and the standard error of the mean is used in determining the probable error in the measurement of the binding. The standard error of the mean of N measurements equals the square root of the following: the sum of the squares of the difference between each measurement and the mean, divided by the product of (N) and (N−1). Thus, in one embodiment, specific binding of the PDZ protein to the platebound peptide is determined by comparing the mean signal (“mean S”) and standard error of the signal (“SE”) for a particular PL-PDZ combination with the mean B1. […]

PDZK1 domain 3 = biological target: T2, PDZK1 domain 3 (Homo sapiens, UniProt Q5T2W1)
T2 construct: made in house; host or cells: E. coli (DH5alpha, BL21 or JM109)
Protocol: as §1, §2, §3, §4

KIAA0973 #288.2 domain 1 = biological target: T3, KIAA0973 #288.2 domain 1 (Homo sapiens, UniProt Q9Y2H9)
T3 construct: made in house; host or cells: E. coli (DH5alpha, BL21 or JM109)
T3 sequence (Q9Y2H9 963-1055): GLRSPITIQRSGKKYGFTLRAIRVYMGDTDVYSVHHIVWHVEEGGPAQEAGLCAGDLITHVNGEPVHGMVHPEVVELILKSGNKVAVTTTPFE
Protocol: as §1, §2, §3, §4

NeDLG domain 3 = biological target: T4, NeDLG domain 3 (Homo sapiens, UniProt Q92796)
T4 construct: made in house; host or cells: E. coli (DH5alpha, BL21 or JM109), vector pGEX-3X
T4 sequence (Q92796 with tags, fused parts or gaps): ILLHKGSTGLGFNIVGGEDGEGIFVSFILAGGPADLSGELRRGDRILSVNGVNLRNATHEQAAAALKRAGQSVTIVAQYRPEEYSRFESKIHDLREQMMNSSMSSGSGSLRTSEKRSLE
Protocol: as §1, §2, §3, §4

Magi2 domain 5 = biological target: T5, Magi2 domain 5 (Homo sapiens, UniProt Q86UL8)
T5 construct: made in house; host or cells: E. coli (DH5alpha, BL21 or JM109), vector pGEX-3X
T5 sequence (Q86UL8 1134-1231): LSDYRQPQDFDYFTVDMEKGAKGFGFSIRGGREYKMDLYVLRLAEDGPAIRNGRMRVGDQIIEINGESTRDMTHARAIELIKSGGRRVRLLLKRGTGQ
Protocol: as §1, §2, §3, §4

NOS1 domain 1 = biological target: T6, NOS1 domain 1 (Homo sapiens, UniProt P29475)
T6 construct: made in house; host or cells: E. coli (DH5alpha, BL21 or JM109)
T6 sequence (P29475 11-100): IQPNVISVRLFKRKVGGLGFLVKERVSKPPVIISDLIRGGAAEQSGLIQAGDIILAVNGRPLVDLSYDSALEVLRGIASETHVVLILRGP
Protocol: as §1, §2, §3, §4

CARD14 domain 1 = biological target: T7, CARD14 domain 1 (Homo sapiens, UniProt Q9BXL6)
T7 construct: made in house; host or cells: E. coli (DH5alpha, BL21 or JM109)
T7 sequence (Q9BXL6 565-664): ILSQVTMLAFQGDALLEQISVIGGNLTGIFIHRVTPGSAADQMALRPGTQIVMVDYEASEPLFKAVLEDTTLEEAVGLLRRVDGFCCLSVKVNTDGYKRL
Protocol: as §1, §2, §3, §4

KIAA1284 domain 1 = biological target: T8, KIAA1284 domain 1 (Homo sapiens, UniProt Q9ULD6)
T8 construct: made in house; host or cells: E. coli (DH5alpha, BL21 or JM109)
T8 sequence (Q9ULD6 159-271): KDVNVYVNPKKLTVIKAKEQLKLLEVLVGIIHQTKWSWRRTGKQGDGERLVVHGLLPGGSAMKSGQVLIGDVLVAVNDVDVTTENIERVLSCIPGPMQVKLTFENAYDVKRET
Protocol: as §1, §2, §3, §4

novel PDZ gene domain 1 = biological target: T9, novel PDZ gene domain 1 (Homo sapiens, UniProt Q9H5P4)
T9 construct: made in house; host or cells: E. coli (DH5alpha, BL21 or JM109)
T9 sequence (Q9H5P4 with tags, fused parts or gaps): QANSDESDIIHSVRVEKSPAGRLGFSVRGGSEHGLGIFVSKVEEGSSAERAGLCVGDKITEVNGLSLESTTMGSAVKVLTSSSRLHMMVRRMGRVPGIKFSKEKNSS
Protocol: as §1, §2, §3, §4

NeDLG domain 1, 2 = biological target: T10, NeDLG domain 1, 2 (Homo sapiens, UniProt Q92796)
T10 construct: the DNA portion cloned represents the PDZ domains and the cDNA portion located between individual domains; made in house; host or cells: E. coli (DH5alpha, BL21 or JM109)
T10 sequence (Q92796 129-315 limits assumed): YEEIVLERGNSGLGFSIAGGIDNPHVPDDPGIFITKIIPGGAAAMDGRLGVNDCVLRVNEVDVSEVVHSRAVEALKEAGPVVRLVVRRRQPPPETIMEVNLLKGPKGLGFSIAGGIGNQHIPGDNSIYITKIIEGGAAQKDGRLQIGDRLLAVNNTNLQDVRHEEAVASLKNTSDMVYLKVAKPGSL
Protocol: as §1, §2, §3, §4

DLG2 #290.1 domain 2 = biological target: T11, DLG2 #290.1 domain 2 (Homo sapiens, UniProt Q15700, K278N)
T11 construct: made in house; host or cells: E. coli (DH5alpha, BL21 or JM109)
T11 sequence (Q15700 whole entry, looked up, the tested form differs by isoform, tags, fused parts or gaps, stated change not applied): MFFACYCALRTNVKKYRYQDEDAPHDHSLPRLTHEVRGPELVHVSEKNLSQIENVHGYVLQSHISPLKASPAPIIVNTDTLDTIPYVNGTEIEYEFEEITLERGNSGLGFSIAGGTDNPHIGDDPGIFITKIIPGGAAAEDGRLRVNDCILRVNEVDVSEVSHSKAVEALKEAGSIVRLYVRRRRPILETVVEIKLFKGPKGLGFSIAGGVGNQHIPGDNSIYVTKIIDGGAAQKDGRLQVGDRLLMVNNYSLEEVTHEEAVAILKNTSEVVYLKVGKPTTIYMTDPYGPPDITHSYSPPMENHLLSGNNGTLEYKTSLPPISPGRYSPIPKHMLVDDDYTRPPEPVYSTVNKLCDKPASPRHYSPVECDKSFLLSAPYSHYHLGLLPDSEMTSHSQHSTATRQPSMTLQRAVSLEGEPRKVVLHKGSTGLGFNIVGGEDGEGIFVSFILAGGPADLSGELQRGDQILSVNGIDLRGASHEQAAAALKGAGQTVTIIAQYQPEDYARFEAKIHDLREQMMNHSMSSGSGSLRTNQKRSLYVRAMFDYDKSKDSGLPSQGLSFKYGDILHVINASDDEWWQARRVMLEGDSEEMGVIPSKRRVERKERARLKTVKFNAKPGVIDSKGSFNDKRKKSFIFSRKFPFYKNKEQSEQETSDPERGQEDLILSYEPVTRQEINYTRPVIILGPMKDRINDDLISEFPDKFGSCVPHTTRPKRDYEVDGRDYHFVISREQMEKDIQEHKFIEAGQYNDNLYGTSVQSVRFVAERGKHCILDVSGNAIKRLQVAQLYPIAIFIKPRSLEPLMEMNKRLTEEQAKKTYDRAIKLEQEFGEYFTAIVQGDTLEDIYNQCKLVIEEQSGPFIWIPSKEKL
Protocol: as §1, §2, §3, §4

SITAC-18 domain 2 = biological target: T12, SITAC-18 domain 2 (Homo sapiens, UniProt Q9H190)
T12 construct: made in house; host or cells: E. coli (DH5alpha, BL21 or JM109)
T12 sequence (Q9H190 with tags, fused parts or gaps): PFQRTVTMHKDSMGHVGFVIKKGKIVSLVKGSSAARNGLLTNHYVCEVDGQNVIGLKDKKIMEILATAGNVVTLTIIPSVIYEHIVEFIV
Protocol: as §1, §2, §3, §4

ZO-2 domain 1 = biological target: T13, ZO-2 domain 1 (Homo sapiens, UniProt Q9UDY2)
T13 construct: made in house; host or cells: E. coli (DH5alpha, BL21 or JM109), vector pGEX-3X
T13 sequence (Q9UDY2 27-122): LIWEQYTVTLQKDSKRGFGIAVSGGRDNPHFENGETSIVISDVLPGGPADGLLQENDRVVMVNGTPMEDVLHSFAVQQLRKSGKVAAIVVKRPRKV
Protocol: as §1, §2, §3, §4

Outer Membrane domain 1 = biological target: T14, Outer Membrane domain 1 (Homo sapiens, UniProt P57105)
T14 construct: made in house; host or cells: E. coli (DH5alpha, BL21 or JM109)
T14 sequence (P57105 with tags, fused parts or gaps): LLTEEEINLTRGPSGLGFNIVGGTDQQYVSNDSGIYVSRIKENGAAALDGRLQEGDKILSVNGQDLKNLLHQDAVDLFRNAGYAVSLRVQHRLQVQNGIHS
Protocol: as §1, §2, §3, §4

20 mer peptide corresponding to the C-terminus of HPV16 E6 (PDZ ligand), biotinylated in binding assays; ends SSRTRRETQL (SEQ ID NO: 13) [HPV E6 #16]
Ave OD (PTN-4 domain 1; A450 nm): 0.8085 | OD S/N (PTN-4 domain 1; vs GST only well): 4.03 | Ave OD (PDZK1 domain 3; A450 nm): 0.5 | OD S/N (PDZK1 domain 3; vs GST only well): 1.92 | Ave OD (KIAA0973 #288.2 domain 1; A450 nm): 2.8295 and 3.85 | OD S/N (KIAA0973 #288.2 domain 1; vs GST only well): 10.11 and 16.42 | Ave OD (NeDLG domain 3; A450 nm): 0.632 and 0.5225 | OD S/N (NeDLG domain 3; vs GST only well): 3.69 and 2.49 | Ave OD (Magi2 domain 5; A450 nm): 0.651 | OD S/N (Magi2 domain 5; vs GST only well): 3.93 | Ave OD (NOS1 domain 1; A450 nm): 0.4775 | OD S/N (NOS1 domain 1; vs GST only well): 2.88 | Ave OD (CARD14 domain 1; A450 nm): 0.342 | OD S/N (CARD14 domain 1; vs GST only well): 1.52 | Ave OD (KIAA1284 domain 1; A450 nm): 0.473 | OD S/N (KIAA1284 domain 1; vs GST only well): 2.72 | Ave OD (novel PDZ gene domain 1; A450 nm): 0.5455 | OD S/N (novel PDZ gene domain 1; vs GST only well): 1.89 | Ave OD (NeDLG domain 1, 2; A450 nm): 3.401 and 3.118 | OD S/N (NeDLG domain 1, 2; vs GST only well): 19.83 and 17.13 | Ave OD (DLG2 #290.1 domain 2; A450 nm): 1.784 and 1.439 | OD S/N (DLG2 #290.1 domain 2; vs GST only well): 9.17 and 13.39 | Ave OD (SITAC-18 domain 2; A450 nm): 0.484 | OD S/N (SITAC-18 domain 2; vs GST only well): 2.46 | Ave OD (ZO-2 domain 1; A450 nm): 0.3415 and 0.622 | OD S/N (ZO-2 domain 1; vs GST only well): 2.11 and 2.56 | Ave OD (Outer Membrane domain 1; A450 nm): 2.392 and 1.3595 | OD S/N (Outer Membrane domain 1; vs GST only well): 11.39 and 6.25
